According to patent US9566312B2, “Cyclic peptides and use as medicines” (priority 2012, dated 2017):
Like-named read-outs stand apart in the source and are kept apart here. Starred links: 1 amine or outer side, 2 acyl side, 3 side chain; linkers in the order of their positions; H or OH if unused. Non-standard residues stand in square brackets, D forms with d. Residues, ends and D or L forms follow the SMILES beside them. X4 = C[C@H](CS(C)(=O)=O)[C@@H](C(=O)[*:2])N(C)[*:1]; X3 = C[C@H](CN1CCOCC1)[C@@H](C(=O)[*:2])N(C)[*:1]; MeBmt = C/C=C/C[C@@H](C)[C@@H](O)[C@H](NC)C(=O)O; X2 = COCC[C@@H](C)[C@@H](C(=O)[*:2])N(C)[*:1]; X77 = COC[C@H](C)[C@@H](C(=O)[*:2])N(C)[*:1]; NMeL = CN[C@@H](CC(C)C)C(=O)O; NMeV = CN[C@H](C(=O)O)C(C)C; dNMeA = CN[C@H](C)C(=O)O; Abu = CC[C@H](N)C(=O)O

Tests used:
[1] = target: organic anion transporting polypeptide 1B1 (OATP1B1) (Homo sapiens (Human), UniProt Q9Y6L6); assay: OATP assay in CHO-OATP1B1 cells;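 also: inhibition of probe substrate uptake into the cells, ten minutes exposure, accumulated substrate read by fluorescence once cells were lysed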
Procedure: In order to determine whether the compounds of the present invention interact with hepatic transporters, experiments were carried out that compared the concentration-dependent inhibition toward the organic anion transporting polypeptide 1B1 (OATP1B1) and the multidrug resistance associated protein 2 (MRP2).
The cells were cultured in DMEM/F12 +10% FBS+2 mM Ala-Gln+1% Pen-Strep for a period of two days, and the media was changed one day post-seeding. Prior to the assay, media was aspirated and were washed −3× with HBSS+10 mM HEPES and the solution was equilibrated for 15 min in HBSS+10 mM HEPES. Solutions containing the inhibitor were prepared in HBSS+10 mM HEPES (up to 1% DMSO). […] After 10 min, the substrate or substrate/inhibitor solution was aspirated and the cells were washed 3× with HBSS+10 mM HEPES. The amount of the transported probe substrate was determined by fluorescent photometry after cell lysis, and the IC50 was derived from the concentration-response curve.

CypF = CypF (Homo sapiens (Human), UniProt P30405); assay: Inhibitor binding to cyclophilin proteins by SPR, CypF; conditions: 1:1 binding model
Method in brief: (§1)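 Mono-biotinylated avi-tagged cyclophilins captured on a Biotin CAPture chip. Single-cycle kinetics at 50 μL/min, 1 min contacts, 10 min final dissociation, in 10 mM HEPES pH 7.4, 150 mM NaCl, 0.05% P20, 3% DMSO. kon, koff and KD from a 1:1 binding model.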

cyclophilin B (CypB) = cyclophilin B (CypB) (Homo sapiens (Human), UniProt P23284); assay: Inhibitor binding to cyclophilin proteins by SPR, CypB; set-up: unit not given here; conditions: 1:1 binding model
Method in brief: as §1

[2] = system: peripheral blood mononuclear cells (PBMC); assay: Anti-proliferative or immunosuppressive activity, BrdU incorporation in PHA-stimulated PBMC; type: cell-based; conditions: PHA 3 μg/ml, 60 hour compound treatment; read-out: EMV PBMC IC50
Method in brief: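 BrdU ELISA read-out of DNA synthesis in freshly isolated PBMCs (two donors, 30,000 cells/well, X-VIVO 15). T-cell proliferation triggered with phytohemagglutinin at 3 μg/ml.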

cyclophilin A (CypA) = cyclophilin A (CypA) (Homo sapiens (Human), UniProt P62937); assay: Inhibitor binding to cyclophilin proteins by SPR, CypA; set-up: unit not given here; conditions: 1:1 binding model;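 also: Single-cycle kinetics on a Biacore T200, compound injected at several concentrations for 1 min each at 50 µL/min, then 10 min dissociation, in HEPES pH 7.4 buffer with 3% DMSO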
CYP3A4 = CYP3A4 (Homo sapiens (Human), UniProt P08684); assay: Time-dependent inhibition of CYP3A4;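 also: Two-step in vitro assay, kobs derived from residual CYP3A4 activity versus preincubation time per concentration, then kinact and KI by nonlinear fit of kobs against concentration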
Human MRP2 = Human MRP2 (Homo sapiens (Human), UniProt Q92887); assay: MRP2 transporter vesicle assay; type: in vitro ADME
Procedure: Method 4: Measuring Hepatic Transporter Interactions […] […] MRP2 Assay: Human MRP2 inhibition was tested using a BD Gentest Transporter Vesicle Assay Kit. Inside-out vesicles were prepared from insect Sf9 cells infected with baculovirus expressing hMRP2. […] The percent remaining of ATP dependent uptake activity was calculated as uptake activity in the presence of inhibitor divided by the uptake activity in the absence of inhibitor.

[3] = system: genotype 1b subgenomic HCV replicon in Huh7.5 cells; type: cell-based, hepatitis C virus; conditions: read-out: RPLN-1b IC50
Method in brief: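 Replicon inhibition read as renilla luciferase signal versus DMSO controls after 72 h incubation, in Huh7.5 cells harbouring a genotype 1b subgenomic replicon; medium phenol red-free DMEM lacking G418. CC50 determined in parallel via Cell Titer-Glo.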

HBV in HepG2215 cells = conditions: cited from earlier work
HCV replicon = conditions: cited from earlier work
hepatitis C virus = conditions: patients, 1200 mg twice daily; cited from earlier work
[4] = genotype 1b replicon, 72 h incubation

Human MRP2, sequence (Q92887 whole entry): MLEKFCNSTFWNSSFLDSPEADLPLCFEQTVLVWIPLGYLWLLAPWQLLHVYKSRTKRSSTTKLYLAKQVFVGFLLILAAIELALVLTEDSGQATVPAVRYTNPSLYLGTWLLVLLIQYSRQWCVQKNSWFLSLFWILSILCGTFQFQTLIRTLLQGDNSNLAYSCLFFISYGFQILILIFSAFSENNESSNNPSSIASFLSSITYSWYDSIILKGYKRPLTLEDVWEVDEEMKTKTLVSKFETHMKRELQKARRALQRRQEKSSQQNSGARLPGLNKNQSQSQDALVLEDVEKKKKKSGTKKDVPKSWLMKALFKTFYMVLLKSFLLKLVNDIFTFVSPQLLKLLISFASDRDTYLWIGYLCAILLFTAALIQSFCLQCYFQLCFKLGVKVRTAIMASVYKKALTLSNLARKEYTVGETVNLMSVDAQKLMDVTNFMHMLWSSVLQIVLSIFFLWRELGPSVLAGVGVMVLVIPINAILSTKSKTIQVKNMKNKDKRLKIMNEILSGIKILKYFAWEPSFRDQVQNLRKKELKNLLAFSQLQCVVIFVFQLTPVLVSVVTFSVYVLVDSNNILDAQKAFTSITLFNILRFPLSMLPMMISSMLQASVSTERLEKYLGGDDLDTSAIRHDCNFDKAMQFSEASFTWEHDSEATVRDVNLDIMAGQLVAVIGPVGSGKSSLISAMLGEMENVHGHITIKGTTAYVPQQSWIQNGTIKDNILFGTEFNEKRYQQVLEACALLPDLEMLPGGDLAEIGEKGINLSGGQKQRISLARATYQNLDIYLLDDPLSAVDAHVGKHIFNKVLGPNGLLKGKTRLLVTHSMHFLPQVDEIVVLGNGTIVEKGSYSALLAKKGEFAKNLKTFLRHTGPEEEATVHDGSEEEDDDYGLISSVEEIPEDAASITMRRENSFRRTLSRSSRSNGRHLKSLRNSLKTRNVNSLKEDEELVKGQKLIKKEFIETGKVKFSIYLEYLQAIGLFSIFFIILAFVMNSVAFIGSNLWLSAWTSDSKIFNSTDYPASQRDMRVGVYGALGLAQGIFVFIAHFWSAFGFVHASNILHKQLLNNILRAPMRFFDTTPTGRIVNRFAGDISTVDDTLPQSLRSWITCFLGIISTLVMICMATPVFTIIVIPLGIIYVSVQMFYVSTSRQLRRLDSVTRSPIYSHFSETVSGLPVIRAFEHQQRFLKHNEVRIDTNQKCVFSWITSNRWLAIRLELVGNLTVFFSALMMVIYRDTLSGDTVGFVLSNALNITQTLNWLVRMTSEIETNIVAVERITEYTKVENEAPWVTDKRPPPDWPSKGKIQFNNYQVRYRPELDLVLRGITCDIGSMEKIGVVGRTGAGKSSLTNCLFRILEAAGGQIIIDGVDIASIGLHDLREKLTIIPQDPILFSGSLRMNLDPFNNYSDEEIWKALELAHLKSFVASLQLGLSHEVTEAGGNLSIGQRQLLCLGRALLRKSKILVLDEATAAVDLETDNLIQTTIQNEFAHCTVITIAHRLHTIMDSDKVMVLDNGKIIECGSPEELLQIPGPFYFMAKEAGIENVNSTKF
CYP3A4, sequence (P08684 whole entry): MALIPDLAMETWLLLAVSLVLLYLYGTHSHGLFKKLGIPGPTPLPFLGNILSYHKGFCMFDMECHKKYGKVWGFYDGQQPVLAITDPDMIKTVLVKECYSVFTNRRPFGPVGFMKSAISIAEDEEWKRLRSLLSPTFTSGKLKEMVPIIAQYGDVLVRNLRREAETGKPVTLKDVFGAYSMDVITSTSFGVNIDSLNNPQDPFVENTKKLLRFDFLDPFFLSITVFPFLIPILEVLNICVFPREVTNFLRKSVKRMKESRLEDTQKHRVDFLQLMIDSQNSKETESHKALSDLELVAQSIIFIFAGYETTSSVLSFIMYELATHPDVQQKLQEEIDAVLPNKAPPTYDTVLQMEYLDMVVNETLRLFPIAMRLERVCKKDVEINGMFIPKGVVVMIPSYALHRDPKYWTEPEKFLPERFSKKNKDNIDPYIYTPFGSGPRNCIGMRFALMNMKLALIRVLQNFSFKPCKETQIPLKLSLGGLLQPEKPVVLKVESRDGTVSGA
CypF, sequence (P30405 30-207): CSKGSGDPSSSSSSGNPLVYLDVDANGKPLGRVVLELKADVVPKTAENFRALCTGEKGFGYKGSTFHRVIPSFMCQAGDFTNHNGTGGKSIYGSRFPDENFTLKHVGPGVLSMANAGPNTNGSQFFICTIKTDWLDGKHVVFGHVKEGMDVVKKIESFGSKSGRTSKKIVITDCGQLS
organic anion transporting polypeptide 1B1 (OATP1B1), sequence (Q9Y6L6 whole entry): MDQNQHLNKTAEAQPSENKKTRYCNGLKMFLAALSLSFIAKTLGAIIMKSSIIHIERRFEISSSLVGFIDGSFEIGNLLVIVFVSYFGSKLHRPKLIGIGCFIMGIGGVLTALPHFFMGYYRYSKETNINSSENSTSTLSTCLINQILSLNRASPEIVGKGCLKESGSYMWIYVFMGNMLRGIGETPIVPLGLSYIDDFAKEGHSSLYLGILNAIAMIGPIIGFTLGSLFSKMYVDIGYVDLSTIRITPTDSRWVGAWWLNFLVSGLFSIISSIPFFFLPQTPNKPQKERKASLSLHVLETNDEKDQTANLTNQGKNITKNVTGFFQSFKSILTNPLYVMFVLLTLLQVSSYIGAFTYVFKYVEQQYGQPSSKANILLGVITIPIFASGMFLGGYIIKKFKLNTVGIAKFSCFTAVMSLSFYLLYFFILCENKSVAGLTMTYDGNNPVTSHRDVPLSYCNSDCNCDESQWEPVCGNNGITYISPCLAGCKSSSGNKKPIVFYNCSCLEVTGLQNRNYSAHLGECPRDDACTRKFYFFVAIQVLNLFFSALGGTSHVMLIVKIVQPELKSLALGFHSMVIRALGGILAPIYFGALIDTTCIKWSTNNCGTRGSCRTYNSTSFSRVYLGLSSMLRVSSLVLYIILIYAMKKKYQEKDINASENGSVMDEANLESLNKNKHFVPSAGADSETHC
cyclophilin B (CypB), sequence (P23284 34-216): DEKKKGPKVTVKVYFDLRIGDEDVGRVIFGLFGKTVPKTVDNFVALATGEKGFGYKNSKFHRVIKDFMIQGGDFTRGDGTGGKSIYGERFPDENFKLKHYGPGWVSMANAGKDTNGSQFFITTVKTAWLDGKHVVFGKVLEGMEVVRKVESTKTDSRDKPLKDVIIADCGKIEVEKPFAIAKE
cyclophilin A (CypA), sequence (P62937 whole entry): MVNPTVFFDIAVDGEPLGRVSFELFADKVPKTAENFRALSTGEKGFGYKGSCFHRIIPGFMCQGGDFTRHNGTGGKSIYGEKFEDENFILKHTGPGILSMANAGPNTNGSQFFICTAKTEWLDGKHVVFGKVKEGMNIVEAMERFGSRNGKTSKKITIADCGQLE

SMILES	IC50 [1]	CypF Kd (CypF)	CypB Kd (cyclophilin B (CypB))	IC50 [2]	CypA Kd (cyclophilin A (CypA))	Ki (CYP3A4)	IC50 (Human MRP2)	IC50 [3, 4]	reduction of HBsAg secretion from cells compared with controls (HBV in HepG2215 cells)	effect on HCV replication (HCV replicon)	reduction in intracellular HBV DNA levels (HBV in HepG2215 cells; 5.0 mcg/mL, 72 hours)	mean hepatitis C load (hepatitis C virus)	NIM TDI kinact/Ki (CYP3A4; probe substrate midazolam)	IC50 [3]
C/C=C/C[C@@H](C)[C@@H](O)[C@H]1C(=O)N[C@@H](CC)C(=O)N(C)[C@H](C)C(=O)N(C)[C@@H]([C@H](C)COC)C(=O)N[C@@H](C(C)C)C(=O)N(C)[C@@H](CC(C)C)C(=O)N[C@@H](C)C(=O)N[C@H](C)C(=O)N(C)[C@@H](CC(C)C)C(=O)N(C)[C@@H](CC(C)C)C(=O)N(C)[C@@H](C(C)C)C(=O)N1C [Compound 2.1, 3-[D-Ala]-4-[(2S,3S)-4-methoxy-3-methyl-2-(methylamino)butanoyl]-cyclosporin]	5.1 µM	0.0013 µM	1.45	10.6 µM	2.05	> 50 µM	14 µM	0.029 µM						
C/C=C/C[C@@H](C)[C@@H](O)[C@H]1C(=O)N[C@@H](CC)C(=O)N(C)CC(=O)N(C)[C@@H]([C@@H](C)CC)C(=O)N[C@@H](C(C)C)C(=O)N(C)[C@@H](CC(C)C)C(=O)N[C@@H](C)C(=O)N[C@H](C)C(=O)N(C)[C@@H](CC(C)C)C(=O)N(C)[C@@H](CC(C)C)C(=O)N(C)[C@@H](C(C)C)C(=O)N1C [NIM811]									about 50%					
C/C=C/C[C@@H](C)[C@@H](O)[C@H]1C(=O)N[C@@H](CC)C(=O)N(C)[C@H](C)C(=O)N(C)[C@@H]([C@H](C)COCCOC(=O)N2CCN(C)CC2)C(=O)N[C@@H](C(C)C)C(=O)N(C)[C@@H](CC(C)C)C(=O)N[C@@H](C)C(=O)N[C@H](C)C(=O)N(C)[C@@H](CC(C)C)C(=O)N(C)[C@@H](CC(C)C)C(=O)N(C)[C@@H](C(C)C)C(=O)N1C (stereo in doubt) [Compound 2.9, 3-[D-Ala]-4-[(2S,3S)-3-methyl-2-(methylamino)-4-(2-((4-methylpiperazine-1-carbonyl)oxy)ethoxy)butanoyl]-cyclosporin]	8.7 µM	0.0004 µM	0.5	13.3 µM	0.9	> 50 µM	30 µM	0.058 µM						
C=CC[C@@H]1/C=C(\C)C[C@H](C)C[C@H](OC)[C@H]2O[C@@](O)(C(=O)C(=O)N3CCCC[C@H]3C(=O)O[C@H](/C(C)=C/[C@@H]3CC[C@@H](O)[C@H](OC)C3)[C@H](C)[C@@H](O)CC1=O)[C@H](C)C[C@@H]2OC [FK506]										did not have significant effect				
C/C=C/C[C@@H](C)[C@@H](O)[C@H]1C(=O)N[C@@H](CC)C(=O)N(C)[C@H](C)C(=O)N(C)[C@@H]([C@H](C)CN2CCOCC2)C(=O)N[C@@H](C(C)C)C(=O)N(C)[C@@H](CC(C)C)C(=O)N[C@@H](C)C(=O)N[C@H](C)C(=O)N(C)[C@@H](CC(C)C)C(=O)N(C)[C@@H](CC(C)C)C(=O)N(C)[C@@H](C(C)C)C(=O)N1C [Compound 2.5.2, 3-[D-Ala]-4-[(2S,3R)-3-methyl-2-(methylamino)-4-morpholinobutanoyl]-cyclosporin] (cyclo(A[dA][NMeL][NMeL][NMeV][MeBmt][Abu][dNMeA][X3]V[NMeL]))	8.2 µM	0.0022 µM	2.9	6.3 µM	4.3	> 50 µM	18 µM	0.1 µM						
C/C=C/C[C@@H](C)[C@@H](O)[C@H]1C(=O)N[C@@H](CC)C(=O)N(C)[C@H](C)C(=O)N(C)[C@@H]([C@H](C)CCOC)C(=O)N[C@@H](C(C)C)C(=O)N(C)[C@@H](CC(C)C)C(=O)N[C@@H](C)C(=O)N[C@H](C)C(=O)N(C)[C@@H](CC(C)C)C(=O)N(C)[C@@H](CC(C)C)C(=O)N(C)[C@@H](C(C)C)C(=O)N1C [Compound 2.13, 3-[D-Ala]-4-[(2S,3R)-5-methoxy-3-methyl-2-(methylamino)pentanoyl]-cyclosporin] (cyclo(A[dA][NMeL][NMeL][NMeV][MeBmt][Abu][dNMeA][X2]V[NMeL]))	2.3 µM	0.0008 µM	0.8	2.6 µM	1.7	> 50 µM	13 µM	0.041 µM						
C/C=C/C[C@@H](C)[C@@H](O)[C@H]1C(=O)N[C@@H](CC)C(=O)N(C)[C@H](C)C(=O)N(CC)[C@@H](C(C)C)C(=O)N[C@@H](C(C)C)C(=O)N(C)[C@@H](CC(C)C)C(=O)N[C@@H](C)C(=O)N[C@H](C)C(=O)N(C)[C@@H](CC(C)C)C(=O)N(C)[C@@H](CC(C)C)C(=O)N(C)[C@@H](C(C)C)C(=O)N1C [alisporivir]									about 50%		10 fold			
C/C=C/C[C@@H](C)[C@@H](O)[C@H]1C(=O)N[C@@H](CC)C(=O)N(C)[C@H](C)C(=O)N(CC)[C@@H](C(C)C)C(=O)N[C@@H](C(C)C)C(=O)N(C)[C@@H](CC(C)C)C(=O)N[C@@H](C)C(=O)N[C@H](C)C(=O)N(C)[C@@H](CC(C)C)C(=O)N(C)[C@@H](CC(C)C)C(=O)N(C)[C@@H](C(C)C)C(=O)N1C [DEBIO-025]												significantly decreased		
C/C=C/C[C@@H](C)[C@@H](O)[C@H]1C(=O)N[C@@H](CC)C(=O)N(C)[C@H](C)C(=O)N(C)[C@@H]([C@@H](C)COC)C(=O)N[C@@H](C(C)C)C(=O)N(C)[C@@H](CC(C)C)C(=O)N[C@@H](C)C(=O)N[C@H](C)C(=O)N(C)[C@@H](CC(C)C)C(=O)N(C)[C@@H](CC(C)C)C(=O)N(C)[C@@H](C(C)C)C(=O)N1C [Compound 2.2, 3-[D-Ala]-4-[(2S,3R)-4-methoxy-3-methyl-2-(methylamino)butanoyl]-cyclosporin] (cyclo(A[dA][NMeL][NMeL][NMeV][MeBmt][Abu][dNMeA][X77]V[NMeL]))	1.9 µM	0.0008 µM	0.8	12.6 µM	1.7		15 µM						5 M⁻¹ s⁻¹	0.048 µM
C/C=C/C[C@@H](C)[C@@H](O)[C@H]1C(=O)N[C@@H](CC)C(=O)N(C)[C@H](C)C(=O)N(C)[C@@H]([C@H](C)CS(C)(=O)=O)C(=O)N[C@@H](C(C)C)C(=O)N(C)[C@@H](CC(C)C)C(=O)N[C@@H](C)C(=O)N[C@H](C)C(=O)N(C)[C@@H](CC(C)C)C(=O)N(C)[C@@H](CC(C)C)C(=O)N(C)[C@@H](C(C)C)C(=O)N1C [Compound 2.4, 3-[D-Ala]-4-[(2S,3S)-3-methyl-2-(methylamino)-4-(methylsulfonyl)butanoyl]-cyclosporin] (cyclo(A[dA][NMeL][NMeL][NMeV][MeBmt][Abu][dNMeA][X4]V[NMeL]))	1.4 µM	0.0006 µM	0.6	1.9 µM	1.5	> 50 µM	9 µM	0.095 µM						
